In test [1] the target is T1, His-TEV-AtPP01 ΔcTP L479M (SEQ ID NO: 371) (Arabidopsis thaliana, UniProt P55826, L479M).
T1 construct: with cTPs removed; made in house; host or cells: E. coli BL21 (DE3), His GraviTrap, partially purified
T1 sequence (P55826 with tags, fused parts or gaps L479M): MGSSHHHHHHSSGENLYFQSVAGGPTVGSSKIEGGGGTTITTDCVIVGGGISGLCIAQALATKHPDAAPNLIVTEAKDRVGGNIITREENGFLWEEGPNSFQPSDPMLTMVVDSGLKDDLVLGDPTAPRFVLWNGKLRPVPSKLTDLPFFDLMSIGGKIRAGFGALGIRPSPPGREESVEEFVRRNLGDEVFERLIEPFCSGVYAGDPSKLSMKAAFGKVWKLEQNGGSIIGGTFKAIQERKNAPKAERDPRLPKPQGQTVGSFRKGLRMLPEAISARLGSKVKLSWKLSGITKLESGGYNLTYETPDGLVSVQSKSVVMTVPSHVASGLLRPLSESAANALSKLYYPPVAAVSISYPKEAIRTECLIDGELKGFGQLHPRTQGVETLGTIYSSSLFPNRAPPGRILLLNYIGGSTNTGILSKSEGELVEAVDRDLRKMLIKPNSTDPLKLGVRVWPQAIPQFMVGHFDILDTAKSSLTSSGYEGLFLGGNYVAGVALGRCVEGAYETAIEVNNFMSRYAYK
Description: activity rate of PPO variant in in vitro assay. It counts as biochemical. The settings on record: role: substrate; 1 uM protoporphyrinogen IX; no inhibitor. The text has this: (§1) A pET24 plasmid containing a DNA sequence encoding variants of AtPPO1 derived from Arabidopsis thaliana with cTPs removed and both a 6×His tag and TEV protease cleavage tag added at the N-terminus, codon-optimised for expression in E. coli, and under control of a T7 promoter, was synthesised by Twist Bioscience. The following variants were synthesised: WT AtPPO1 (SEQ ID NO: 370), AtPPO1 L479M (SEQ ID NO: 371), AtPPO1 L479N (SEQ ID NO: 372), AtPPO1 S305L Y426V (SEQ ID NO: 374) and AtPPO1 S305L Y426V L479M (SEQ ID NO: 373). This plasmid was expressed in E. coli BL21 (DE3) with 50 μg/mL kanamycin selection. 10 mL of overnight cultures grown at 37° C. were used to inoculate 1 L AIM (AIM-Terrific Broth Base including Trace elements, Formedium) in 2 L shake flasks. Cultures were grown at 37° C., 200 rpm for 3 hours and then overnight at 26° C. Cells were harvested centrifugation. 5-15 g of cell pellet was lysed in and resuspended in ratio of 1:1.5 in lysis buffer (20 mM Tris pH8, 500 mM sodium chloride, 10% glycerol, 1× complete Protease EDTA-free Inhibitor Tablet (Roche), 10 mM imidazole). The resuspension was sonicated at 75% using 10 cycles of 30 seconds, 40 seconds off. After sonication Triton X-100 was added to the lysates at a final concentration of 0.5%. The lysates were centrifuged at 20,000 rpm for 25 min at 4° C. Cleared lysates were loaded on His GraviTrap (Cytiva) columns, washed with 20 mL of lysis buffer and eluted in elution buffer (20 mM Tris pH8, 500 mM sodium chloride, 10% glycerol, 200 mM imidazole, 0.03% (v/v) Triton X-100). The eluate was desalted on a PD10 column and 2.5-3.2 mL was collected. Protein concentration was measured and calculated using the absorbance at 280 nm. Extracts were diluted 1 in 4 and 10 uL was analysed by SDS PAGE.
(§2) Partially purified Protoporphyrinogen Oxidase enzymes were assayed for activity using fluorescence adapted from the method of Shepherd & Dailey (Anal Biochem. 2005 344(1) 115-121). The assay was performed in black 384 well plates with a clear bottom and the total volume of the reaction mixture was 91 ul. The final assay mixture contained 100 mM K2HPO4 pH7.2, 1 mM Na2EDTA, 5 mM DTT, 20% glycerol (v/v), 0.05% Tween 20 (v/v), 1.1% DMSO (v/v), 1 uM protoporphyrinogen IX and 1.5 nM enzyme. Compounds were dissolved in DMSO at 1 mM and a 4-fold serial dilution carried out to give 8 rates. 1 ul was added to the assay mixture. This gave final compound concentrations of 11, 2.7, 0.69, 0.17, 0.04, 0.01, 0.002, 0.0007 uM. Enzyme and inhibitor were preincubated for 5 minutes prior to starting the reaction with the addition of the substrate. […] IC50s were calculated using GraphPad Prism 7.05 nonlinear regression (Table 6). Each compound was tested in duplicate.

Test [2] addresses T2, His-TEV-AtPP01 ΔcTP (SEQ ID NO: 370) (Arabidopsis thaliana, UniProt P55826).
T2 construct: with cTPs removed; made in house; host or cells: E. coli BL21 (DE3), His GraviTrap, partially purified
T2 sequence (P55826 with tags, fused parts or gaps): T1 sequence (P55826 with tags, fused parts or gaps L479M) with M464L
Nature of the test: activity rate of PPO variant in in vitro assay. It counts as biochemical. The settings on record: role: substrate; 1 uM protoporphyrinogen IX; no inhibitor.
Text: as §1, §2

Molecules are shown by their SMILES. Numbering of substitutions follows the chain as printed.

As for `C=Cc1c2[nH]c(c1C)Cc1[nH]c(c(CCC(=O)O)c1C)Cc1[nH]c(c(C)c1CCC(=O)O)Cc1[nH]c(c(C)c1C=C)C2` [protoporphyrinogen IX], the figures for the Rate in test [1] and in test [2] were 9.9 rfu second^−1 pmole^−1 and 5.1 rfu second^−1 pmole^−1, respectively.

These data come from US20260297542A1, “HERBICIDE RESISTANT PLANTS” (SYNGENTA CROP PROTECTION AG, priority 2023, published 2026).
